Data from patent US12410208B2, “(2-acetamidyl)thio-beta-D-galactopyranoside derivatives” (Idorsia Pharmaceuticals Ltd, priority 2020, dated 2025).
Like-named read-outs stand apart in the source and are kept apart here.

How the values were obtained:
[1] = molecular target: biotinylated human Gal-3 (hGal-3) (Homo sapiens, UniProt P17931); assay: Competitive binding assay: biotinylated hGal-3 binding to microplate-adsorbed asialofetuin (ASF), spectrophotometric
Procedure, shortened: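 Serially diluted compounds competed with asialofetuin on the plate for biotinylated human Gal-3 during a 3 h incubation at 4° C. Streptavidin-peroxidase with ABTS gave the spectrophotometric signal. IC50 values were averaged over repeat runs.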

human Gal-1 (hGal-1) = human Gal-1 (hGal-1) (Homo sapiens, UniProt P09382); assay: Competitive binding assay: biotinylated hGal-1 binding to microplate-adsorbed asialofetuin (ASF), spectrophotometric; settings: hGal-1 binding to asialofetuin; Table 15; R and S epimers of selected Examples also listed; read-out: IC50 (Galectin-1 inhibition)
human Gal-1 (hGal-1), sequence (P09382 whole entry): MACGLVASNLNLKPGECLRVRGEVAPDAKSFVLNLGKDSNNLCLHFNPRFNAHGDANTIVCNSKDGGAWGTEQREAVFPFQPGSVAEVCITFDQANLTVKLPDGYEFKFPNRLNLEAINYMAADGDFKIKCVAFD
Procedure, shortened: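 Spectrophotometric competition readout with ABTS after streptavidin-peroxidase (80 ng/mL, 1 h, 4 °C) detection of bound biotinylated hGal-1.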

[2] = Gal-3 inhibition, Table 4, read-out: IC50
[3] = Table 12, hGal-3, read-out: IC50 (Gal-3 inhibition)
[4] = Gal-3 inhibition, Table 5, read-out: IC50

biotinylated human Gal-3 (hGal-3), sequence (P17931 whole entry): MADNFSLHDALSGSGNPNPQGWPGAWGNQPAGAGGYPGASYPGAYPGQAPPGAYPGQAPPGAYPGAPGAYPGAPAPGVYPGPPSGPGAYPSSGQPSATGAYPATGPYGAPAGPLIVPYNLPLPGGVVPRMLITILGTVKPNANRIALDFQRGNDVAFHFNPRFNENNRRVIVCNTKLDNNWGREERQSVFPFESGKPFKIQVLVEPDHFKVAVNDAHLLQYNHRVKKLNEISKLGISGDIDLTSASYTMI

Row | IC50 (human Gal-1 (hGal-1)) [nM] | IC50 [1, 4] [nM] | Compound | other results
1 | 200 |  | CN(CC1CCOCC1)C(=O)C(S[C@@H]1O[C@H](CO)[C@H](O)[C@H](n2cc(-c3cc(F)c(F)c(F)c3)nn2)[C@H]1O)C1(O)CCOCC1 (stereo partly drawn) [Example 2.41.213., 2-(((2S,3R,4S,5R,6R)-3,5-dihydroxy-6-(hydroxymethyl)-4-(4-(3,4,5-trifluorophenyl)-1H-1,2,3-triazol-1-yl)tetrahydro-2H-pyran-2-yl)thio)-2-(4-hydroxytetrahydro-2H-pyran-4-yl)-N-methyl-N-((tetrahydro-2H-pyran-4-yl)methyl)acetamide] | IC50 [1, 2]: 80 nM
2 | 110 |  | CO[C@@H]1[C@@H](n2cc(-c3cc(F)c(F)c(F)c3)nn2)[C@@H](O)[C@@H](CO)O[C@H]1SC(C(=O)N(C)CCC1CC1)C1(O)CCC(F)(F)CC1 (stereo partly drawn) [Example 2.44.217.I., N-(2-Cyclopropylethyl)-2-(4,4-difluoro-1-hydroxycyclohexyl)-2-(((2S,3R,4S,5R,6R)-5-hydroxy-6-(hydroxymethyl)-3-methoxy-4-(4-(3,4,5-trifluorophenyl)-1H-1,2,3-triazol-1-yl)tetrahydro-2H-pyran-2-yl)thio)-N-methylacetamide] | IC50 [1, 3]: 50 nM
3 | 70 |  | CO[C@@H]1[C@@H](n2cc(-c3cc(F)c(F)c(F)c3)nn2)[C@@H](O)[C@@H](CO)O[C@H]1S[C@H](C(=O)N(C)CC(C)(C)F)C1(O)CCC(F)(F)CC1 [Example 2.44.222S.I., (S)-2-(4,4-Difluoro-1-hydroxycyclohexyl)-N-(2-fluoro-2-methylpropyl)-2-(((2S,3R,4S,5R,6R)-5-hydroxy-6-(hydroxymethyl)-3-methoxy-4-(4-(3,4,5-trifluorophenyl)-1H-1,2,3-triazol-1-yl)tetrahydro-2H-pyran-2-yl)thio)-N-methylacetamide] | IC50 [1, 3]: 10 nM
4 | 110 | 90 | CN(CC(C)(C)F)C(=O)[C@@H](S[C@@H]1O[C@H](CO)[C@H](O)[C@H](n2cc(-c3cc(F)c(F)c(F)c3)nn2)[C@H]1O)C1(O)CCC1 [Example 2.34.222S., (S)-2-(((2S,3R,4S,5R,6R)-3,5-Dihydroxy-6-(hydroxymethyl)-4-(4-(3,4,5-trifluorophenyl)-1H-1,2,3-triazol-1-yl)tetrahydro-2H-pyran-2-yl)thio)-N-(2-fluoro-2-methylpropyl)-2-(1-hydroxycyclobutyl)-N-methylacetamide] | 
5 | 6540 | 2400 | CN(C(=O)[C@H](S[C@@H]1O[C@H](CO)[C@H](O)[C@H](n2cc(-c3cc(F)c(F)c(F)c3)nn2)[C@H]1O)C1(O)CCOCC1)C1COC1 [Example 2.41.235R., (R)-2-(((2S,3R,4S,5R,6R)-3,5-Dihydroxy-6-(hydroxymethyl)-4-(4-(3,4,5-trifluorophenyl)-1H-1,2,3-triazol-1-yl)tetrahydro-2H-pyran-2-yl)thio)-2-(4-hydroxytetrahydro-2H-pyran-4-yl)-N-methyl-N-(oxetan-3-yl)acetamide] | 
6 | 4900 |  | CC1CN(C(=O)[C@H](S[C@@H]2O[C@H](CO)[C@H](O)[C@H](n3cc(-c4cc(F)c(F)c(F)c4)nn3)[C@H]2O)C2(O)CCOCC2)C1 [Example 2.41.205R., (R)-2-(((2S,3R,4S,5R,6R)-3,5-Dihydroxy-6-(hydroxymethyl)-4-(4-(3,4,5-trifluorophenyl)-1H-1,2,3-triazol-1-yl)tetrahydro-2H-pyran-2-yl)thio)-2-(4-hydroxytetrahydro-2H-pyran-4-yl)-1-(3-methylazetidin-1-yl)ethan-1-one] | IC50 [1, 2]: 1000 nM
7 | 1020 |  | CCC(O)C(S[C@@H]1O[C@H](CO)[C@H](O)[C@H](n2cc(-c3cc(F)c(F)c(F)c3)nn2)[C@H]1O)C(=O)N(C)CC (stereo partly drawn) [Example 2.60.203., 2-(((2S,3R,4S,5R,6R)-3,5-Dihydroxy-6-(hydroxymethyl)-4-(4-(3,4,5-trifluorophenyl)-1H-1,2,3-triazol-1-yl)tetrahydro-2H-pyran-2-yl)thio)-N-ethyl-3-hydroxy-N-methylpentanamide] | IC50 ([1]; Gal-3 inhibition, Table 7, read-out: IC50): 170 nM
8 | 140 | 60 | 2-(4,4-Difluoro-1-hydroxycyclohexyl)-2-(((2S,3R,4S,5R,6R)-3,5-dihydroxy-6-(hydroxymethyl)-4-(4-(3,4,5-trifluorophenyl)-1H-1,2,3-triazol-1-yl)tetrahydro-2H-pyran-2-yl)thio)-N-ethyl-N-methylacetamide [Example 2.44.203.] | 
9 | > 100000 |  | CN(C)C(=O)[C@H](S[C@@H]1O[C@H](CO)[C@H](O)[C@H](n2cc(-c3cc(F)c(F)c(F)c3)nn2)[C@H]1O)C1(O)CCOCC1 [Example 2.41.201R., (R)-2-(((2S,3R,4S,5R,6R)-3,5-Dihydroxy-6-(hydroxymethyl)-4-(4-(3,4,5-trifluorophenyl)-1H-1,2,3-triazol-1-yl)tetrahydro-2H-pyran-2-yl)thio)-2-(4-hydroxytetrahydro-2H-pyran-4-yl)-N,N-dimethylacetamide] | IC50 [1, 2]: 4100 nM
10 | 240 |  | CCN(C)C(=O)[C@@H](S[C@@H]1O[C@H](CO)[C@H](O)[C@H](n2cc(-c3cc(F)c(F)c(F)c3)nn2)[C@H]1O)C(C)(C)O [Example 2.31.203S., (S)-2-(((2S,3R,4S,5R,6R)-3,5-Dihydroxy-6-(hydroxymethyl)-4-(4-(3,4,5-trifluorophenyl)-1H-1,2,3-triazol-1-yl)tetrahydro-2H-pyran-2-yl)thio)-N-ethyl-3-hydroxy-N,3-dimethylbutanamide] | IC50 ([1]; Gal-3 inhibition, Table 3, read-out: IC50): 70 nM
11 | 160 | 310 | CN(CC(C)(C)C)C(=O)C(S[C@@H]1O[C@H](CO)[C@H](O)[C@H](n2cc(-c3cc(F)c(F)c(F)c3)nn2)[C@H]1O)C1(O)CCC1 (stereo partly drawn) [Example 2.34.228., 2-(((2S,3R,4S,5R,6R)-3,5-Dihydroxy-6-(hydroxymethyl)-4-(4-(3,4,5-trifluorophenyl)-1H-1,2,3-triazol-1-yl)tetrahydro-2H-pyran-2-yl)thio)-2-(1-hydroxycyclobutyl)-N-methyl-N-neopentylacetamide] | 
12 | 30800 |  | CCN(C)C(=O)[C@H](S[C@@H]1O[C@H](CO)[C@H](O)[C@H](n2cc(-c3cc(F)c(F)c(F)c3)nn2)[C@H]1O)C(O)(CC)CC [Example 2.32.203R., (R)-2-(((2S,3R,4S,5R,6R)-3,5-Dihydroxy-6-(hydroxymethyl)-4-(4-(3,4,5-trifluorophenyl)-1H-1,2,3-triazol-1-yl)tetrahydro-2H-pyran-2-yl)thio)-N,3-diethyl-3-hydroxy-N-methylpentanamide] | IC50 ([1]; Table 6, hGal-3, read-out: IC50 (Gal-3 inhibition)): 4550 nM
13 | 20 |  | CCN(C(=O)C(S[C@@H]1O[C@H](CO)[C@H](O)[C@H](n2cc(-c3cc(F)c(F)c(F)c3)nn2)[C@H]1O)C1(O)CCOCC1)C1CCC1 (stereo partly drawn) [Example 2.41.237.] | IC50 ([1]; Table 10, hGal-3, read-out: IC50 (Gal-3 inhibition)): 30 nM
14 | 50 |  | CN(CC1CC1)C(=O)[C@@H](S[C@@H]1O[C@H](CO)[C@H](O)[C@H](n2cc(-c3cc(F)c(F)c(F)c3)nn2)[C@H]1O)C1(O)CCOCC1 [Example 2.41.218S., (S)-N-(Cyclopropylmethyl)-2-(((2S,3R,4S,5R,6R)-3,5-dihydroxy-6-(hydroxymethyl)-4-(4-(3,4,5-trifluorophenyl)-1H-1,2,3-triazol-1-yl)tetrahydro-2H-pyran-2-yl)thio)-2-(4-hydroxytetrahydro-2H-pyran-4-yl)-N-methylacetamide] | IC50 [1, 2]: 20 nM
15 | 9900 | 4470 | CCN(CC1CC1)C(=O)C(S[C@@H]1O[C@H](CO)[C@H](O)[C@H](n2cc(-c3cc(F)c(F)c(F)c3)nn2)[C@H]1O)C1(O)CCOCC1 (stereo partly drawn) [Example 2.41.236., N-(Cyclopropylmethyl)-2-(((2S,3R,4S,5R,6R)-3,5-dihydroxy-6-(hydroxymethyl)-4-(4-(3,4,5-trifluorophenyl)-1H-1,2,3-triazol-1-yl)tetrahydro-2H-pyran-2-yl)thio)-N-ethyl-2-(4-hydroxytetrahydro-2H-pyran-4-yl)acetamide] | 
